Experimental data from US9302999B2, “Substituted triazoles as herbicides” (E. I. DU PONT DE NEMOURS AND COMPANY, priority 2012, dated 2016).

How the values were obtained:
Type in all cases: in vivo
kochia (Kochia scoparia) = assay: Test D pre-/postemergence: kochia; details: Postemergence
Description: (§1) Seeds of plant species selected from bluegrass (annual bluegrass, Poa annua), blackgrass (Alopecurus myosuroides), canarygrass (Phalaris minor), chickweed (common chickweed, Stellaria media), galium (catchweed bedstraw, Galium aparine), bromegrass, downy (downy bromegrass, Bromus tectorum), field poppy (Papaver rhoeas), field violet (Viola arvensis), foxtail, green (green foxtail, Setaria viridis), deadnettle (henbit deadnettle, Lamium amplexicaule), ryegrass, Italian (Italian ryegrass, Lolium multiflorum), kochia (Kochia scoparia), lambsquarters (Chenopodium album), oilseed rape (Brassica napus), pigweed (Amaranthus retroflexus), Russian thistle (Salsola iberica), chamomile (scentless chamomile, Matricaria inodora), speedwell (bird's-eye speedwell, Veronica persica), barley, spring (spring barley, Hordeum vulgare), wheat, spring (spring wheat, Triticum aestivum), buckwheat, wild (wild buckwheat, Polygonum convolvulus), mustard, wild (wild mustard, Sinapis arvensis), oat, wild (wild oat, Avena fatua), radish, wild (wild radish, Raphanus raphanistrum), windgrass (Apera spica-venti), barley, winter (winter barley, Hordeum vulgare), and wheat, winter (winter wheat, Triticum aestivum) were planted into a silt loam soil and treated preemergence with test chemicals formulated in a non-phytotoxic solvent mixture which included a surfactant. At the same time, these same crop and weed species were planted in pots containing the planting medium comprising spaghnum peat moss, vermiculite, wetting agent and starter nutrients and treated with postemergence applications of the test chemicals formulated in the same manner. Plants ranged in height from 2 to 18 cm (1- to 4-leaf stage).
(§2) Treated plants and controls were maintained in a controlled growth environment for 14 to 21 days after which time all species were compared to controls and visually evaluated. Plant response ratings, summarized in Table D, are based on a scale of 0 to 100 where 0 is no effect and 100 is complete control. A dash (-) response means no test result.

[1] = tested on: radish, wild (wild radish, Raphanus raphanistrum); assay: Test D pre-/postemergence: radish, wild; details: Postemergence
Description: as §1, §2

[2] = tested on: Russian thistle (Salsola kali); assay: Test C pre-/postemergence: Russian thistle; details: Preemergence
Description: Seeds of plant species selected from blackgrass (Alopecurus myosuroides), bromegrass, downy (downy bromegrass, Bromus tectorum), foxtail, green (green foxtail, Setaria viridis), ryegrass, Italian (Italian ryegrass, Lolium multiflorum), winter wheat (Triticum aestivum), wild oat (Avena fatua), galium (catchweed bedstraw, Galium aparine), bermudagrass (Cynodon dactylon), surinam grass (Brachiaria decumbens), cocklebur (common cocklebur, Xanthium strumarium), corn (Zea mays), large crabgrass (Digitaria sanguinalis), woolly cupgrass (Eriochloa villosa), foxtail, giant (giant foxtail, Setaria faberii), goosegrass (Eleusine indica), johnsongrass (Sorghum halepense), kochia (Kochia scoparia), lambsquarters (Chenopodium album), morningglory (Ipomoea coccinea), nightshade (eastern black nightshade, Solanum ptycanthum), nutsedge, yellow (yellow nutsedge, Cyperus esculentus), pigweed (Amaranthus retroflexus), ragweed (common ragweed, Ambrosia elation), soybean (Glycine max), common (oilseed) sunflower (Helianthus annuus), Russian thistle (Salsola kali) and velvetleaf (Abutilon theophrasti) were planted into a blend of loam soil and sand and treated preemergence with test chemicals formulated in a non-phytotoxic solvent mixture which included a surfactant.
At the same time, plants selected from these crop and weed species and also barley (winter barley, Hordeum vulgare), canarygrass (Phalaris minor), chickweed (common chickweed, Stellaria media) windgrass (Apera spica-venti) and deadnettle (henbit deadnettle, Lamium amplexicaule) were planted in pots containing Redi-Earth® planting medium (Scotts Company, 14111 Scottslawn Road, Marysville, Ohio 43041) comprising spaghnum peat moss, vermiculite, wetting agent and starter nutrients and treated with postemergence applications of test chemicals formulated in the same manner. Plants ranged in height from 2 to 18 cm (1- to 4-leaf stage) for postemergence treatments.
as §2, with “greenhouse” for “controlled growth environment”, “13” for “14”, “15 days,” for “21 days”, “C,” for “D,”

[3] = tested on: crabgrass, Brazil (Brazilian crabgrass, Digitaria horizontalis); assay: Test F pre-/postemergence: crabgrass, Brazil
Description: (§3) Seeds of plant species selected from corn (Zea mays), soybean (Glycine max), velvetleaf (Abutilon theophrasti), lambsquarters (Chenopodium album), poinsettia, wild (wild poinsettia, Euphorbia heterophylla), pigweed, palmer (palmer pigweed, Amaranthus palmeri), waterhemp (common waterhemp, Amaranthus rudis), surinam grass (Brachiaria decumbens), crabgrass, Brazil (Brazilian crabgrass, Digitaria horizontalis), panicum, fall (fall panicum Panicum dichotomiflorum), crabgrass, large (large crabgrass, Digitaria sanguinalis), foxtail, giant (giant foxtail, Setaria faberii), foxtail, green (green foxtail Setaria viridis), goosegrass (Eleusine indica), ragweed (common ragweed, Ambrosia elatior), barnyardgrass (Echinochloa crus-galli), sandbur (southern sandbur, Cenchrus echinatus), arrowleaf sida (Sida rhombifolia), ryegrass, Italian (Italian ryegrass, Lolium multiflorum), dayflower, VA (Virginia (VA) dayflower, Commelina virginica), field bindweed (Convolvulus arvensis), cocklebur (common cocklebur, Xanthium strumarium), morningglory (Ipomoea coccinea), nightshade (eastern black nightshade, Solanum ptycanthum), kochia (Kochia scoparia), nutsedge, yellow (yellow nutsedge, Cyperus esculentus), johnsongrass (Sorghum halepense), smartweed (ladysthumb smartweed, Polygonum persicaria), and beggarticks (hairy beggarticks, Bidens pilosa), were planted into a silt loam soil and treated preemergence with test chemicals formulated in a non-phytotoxic solvent mixture which included a surfactant. At the same time, plants selected from these crop and weed species and also pigweed (Amaranthus retroflexus), waterhemp_RES1 (ALS/Triazine resistant common waterhemp, Amaranthus rudis) and waterhemp_RES2 (ALS/HPPD resistant common waterhemp, Amaranthus rudis) were planted in pots containing a planting medium comprising spaghnum peat moss, vermiculite, wetting agent and starter nutrients treated with postemergence applications of some of the test chemicals formulated in the same manner. Plants ranged in height from 2 to 18 cm for postemergence treatments (1- to 4-leaf stage).
as §2, with “greenhouse” for “controlled growth environment”, “days,” for “days”, “E,” for “D,”

[4] = tested on: arrowleaf sida (Sida rhombifolia); assay: Test F pre-/postemergence: arrowleaf sida
Description: as §3
as §2, with “greenhouse” for “controlled growth environment”, “days,” for “days”, “E,” for “D,”

[5] = 31 g ai/ha, scale 0 to 100 (0 no effect, 100 complete control)
[6] = 62 g ai/ha, scale 0 to 100 (0 no effect, 100 complete control)
[7] = 125 g ai/ha, scale 0 to 100, 0 no effect, 100 complete control
[8] = 250 g ai/ha, scale 0 to 100 (0 no effect, 100 complete control)
[9] = Preemergence, 16 g ai/ha, scale 0 to 100, 0 no effect, 100 complete control
[10] = Preemergence, 31 g ai/ha, scale 0 to 100, 0 no effect, 100 complete control
[11] = Preemergence, 62 g ai/ha, scale 0 to 100
[12] = Preemergence, 125 g ai/ha, scale 0 to 100
[13] = Preemergence, 250 g ai/ha, scale 0 to 100
[14] = Postemergence, 250 g ai/ha, scale 0 to 100
[15] = Postemergence, 16 g ai/ha, scale 0 to 100
[16] = Postemergence, 31 g ai/ha, scale 0 to 100
[17] = Postemergence, 62 g ai/ha, scale 0 to 100
[18] = Postemergence, 125 g ai/ha, scale 0 to 100

With `Cc1nn(-c2ccc(C(F)(F)F)cn2)nc1Oc1ccnc(C(F)(F)F)c1` [Compound 23] the “Plant response rating: Kochia” value (kochia (Kochia scoparia); [5]) was 80, the “Plant response rating: Kochia” value (kochia (Kochia scoparia); [6]) was 85 and the “Plant response rating: Kochia” value (kochia (Kochia scoparia); [7]) was 90. The “Plant response rating: Kochia” value (kochia (Kochia scoparia); [8]) was 95, the “Plant response rating, Kochia” value (kochia (Kochia scoparia); 16 g ai/ha, scale 0 to 100) was 20 and the “Plant response rating: Radish, Wild” value [1, 5] was 20. For the same molecule, the “Plant response rating: Radish, Wild” value [1, 6] was 40, the “Plant response rating: Radish, Wild” value [1, 7] was 75 and the “Plant response rating: Radish, Wild” value [1, 8] was 100. For the same molecule, the “Plant response rating, Radish, Wild” value ([1]; 16 g ai/ha, scale 0 to 100) was 20.

For `FC(F)Oc1nn(-c2ccc(C(F)(F)F)cc2)nc1Cc1ccnc(C(F)(F)F)c1` [Compound 26], the “Plant response rating, Russian Thistle” value ([2]; 62 g ai/ha, scale of 0 to 100, 0 is no effect, 100 is complete control) was 80, the “Plant response rating, Russian Thistle” value [2, 7] was 95 and the “Plant response rating, Russian Thistle” value ([2]; 250 g ai/ha, scale 0 to 100, 0 no effect, 100 complete control) was 95.

In the case of `CCc1nn(-c2ccc(F)c(F)c2)nc1Oc1ccnc(C(F)(F)F)c1` [Compound 171], the “Plant response rating, Crabgrass, Brazil” value [3, 9] is reported as 0, the “Plant response rating, Crabgrass, Brazil” value [3, 10] is reported as 98 and the “Plant response rating, Crabgrass, Brazil” value [3, 11] is reported as 100. The “Plant response rating, Crabgrass, Brazil” value [3, 12] was 100, the “Plant response rating, Crabgrass, Brazil” value [3, 13] was 100 and the “Plant response rating, Arrowleaf Sida” value [4, 9] was 0. For the same molecule, the “Plant response rating, Arrowleaf Sida” value [4, 10] was 0, the “Plant response rating, Arrowleaf Sida” value [4, 11] was 15 and the “Plant response rating, Arrowleaf Sida” value [4, 12] was 30. For the same molecule, the “Plant response rating, Arrowleaf Sida” value [4, 13] was 60.

`CCc1nn(-c2ccc(C(F)(F)F)cc2)nc1Oc1ccnc(C(F)(F)F)c1` [Compound 169] was tested, and the “Plant response rating, Crabgrass, Brazil” value [3, 14] was 30, the “Plant response rating, Crabgrass, Brazil” value [3, 15] was 20 and the “Plant response rating, Crabgrass, Brazil” value [3, 16] was 20. For the same molecule, the “Plant response rating, Crabgrass, Brazil” value [3, 17] was 20, the “Plant response rating, Crabgrass, Brazil” value [3, 18] was 20 and the “Plant response rating, Crabgrass, Brazil” value [3, 9] was 100. The “Plant response rating, Crabgrass, Brazil” value [3, 10] was 100, the “Plant response rating, Crabgrass, Brazil” value [3, 11] was 100 and the “Plant response rating, Crabgrass, Brazil” value [3, 12] was 100. The “Plant response rating, Crabgrass, Brazil” value [3, 13] was 100, the “Plant response rating, Arrowleaf Sida” value [4, 14] was 50 and the “Plant response rating, Arrowleaf Sida” value [4, 15] was 20. For the same molecule, the “Plant response rating, Arrowleaf Sida” value [4, 16] was 20, the “Plant response rating, Arrowleaf Sida” value [4, 17] was 20 and the “Plant response rating, Arrowleaf Sida” value [4, 18] was 30. For the same molecule, the “Plant response rating, Arrowleaf Sida” value [4, 9] was 0, the “Plant response rating, Arrowleaf Sida” value [4, 10] was 0 and the “Plant response rating, Arrowleaf Sida” value [4, 11] was 0. The “Plant response rating, Arrowleaf Sida” value [4, 12] was 5 and the “Plant response rating, Arrowleaf Sida” value [4, 13] was 5.
